Experimental data from US20240254130A1, “SALT AND SOLID FORMS OF A KINASE INHIBITOR” (Blueprint Medicines Corporation, priority 2021, published 2024).
Values after ≈ are worked out from the molar mass of the structure shown. Read-outs that look alike come from different tables or passages of the source.

What was measured:
[1] = Salt screen: stability on drying and humidity exposure, hygroscopicity; type: physicochemical
Procedure: A stock solution with concentration of 85 mg/mL was prepared in TFE. Stock solutions of fourteen different counter ions (e.g., benzenesulfonic acid, benzoic acid, phosphoric acid, sulfuric acid, citric acid, glucuronic acid, glutamic acid, hydrochloric acid, malic acid, methanesulfonic acid, Succinic acid, tartaric acid, toluenesulfonic acid, and acetic acid) were prepared in EtOH. 352 μL (30 mg) of the freebase solution was added to each vial. 1.1 and/or 2.2 equivalents of the appropriate counter ion stock solution were added to each vial. The vials were left to stir at 45° C. for two hours before being uncapped and left to evaporate at 40° C. with stirring overnight in atmosphere. The vials were then placed under active vacuum at 50° C. for 3 hours to dry thoroughly. Approximately, 20 volumes (600 μL) of screening solvent were then added to each vial, and the samples were heated to 45° C. with stirring (450 rpm). […] After two hours, the samples were left to stir at room temperature.
Crystalline salts were characterized and evaluated for viability based on melting point, crystallinity, stability on drying and humidity exposure, water solubility, polymorphism, and acceptability of counter-ion.

[2] = Brain penetration potential
[3] = Phase 1 single and multiple ascending dose study (safety, tolerability, pharmacokinetics); type: in vivo, human
Procedure: Compound (I) was administered as the monophosphate salt. Screening of subjects occurred within 28 days prior to (first) dosing. Subjects participated in only 1 cohort in only 1 study part.
Part 1 (SAD): Six (6) cohorts of 8 subjects each (6 active and 2 placebo) were evaluated. […] The first cohort (Cohort S1) included a sentinel group (1 active and 1 placebo) which was dosed at least 24 hours before the remaining 6 subjects (5 active and 1 placebo). Dosing of the remaining 6 subjects in Cohort S1 was conducted following a safety evaluation of the sentinel group.
Blood samples were collected pre-dose on Day-1, on Day 2, and on Day 5 to measure pharmacodynamic (PD) biomarker (tryptase) concentration.
Part 2 (MAD): Four (4) cohorts of 8 subjects each (6 active and 2 placebo) were evaluated.
Plasma samples were collected pre-dose on Days 1-10 for PK assessment. Plasma samples were also collected through 24 hours post-dose on Day 1 and through 96 hours post-dose on Day 10 for PK assessment. Blood samples were collected pre-dose on Day 1, and pre-dose on Days 2, 5, and 9 to measure PD biomarker (tryptase) concentration. […] Safety was assessed according to incidence and severity of adverse events in recipients of Compound (I) as compared with placebo.

[4] = Solubility of Compound (I) free base in solvents at 50° C.; type: physicochemical; conditions: organic solvent or mixture
[5] = Phase 1 single and multiple ascending dose study (safety, tolerability, pharmacokinetics); type: in vivo, human; conditions: five SAD cohorts and three MAD cohorts

Compound | behaviour of solids upon humidification (high humidity) [1] | brain penetration potential [2] | severity of adverse events ([3]; abdominal pain, decreased appetite, fatigue, headache, nausea, mostly not related to the drug) | increase in systemic exposure with dose ([3]; across SAD and MAD cohorts) | linearity of pharmacokinetics ([3]; across the dose ranges in SAD and MAD cohorts) | half-life ([3]; human, plasma, oral, healthy adult subjects, given as monophosphate salt, read-out: mean half-life (t1/2)) | Vd/F ([3]; human, plasma, oral, healthy adult subjects, read-out: geometric mean Vz/F) | Tmax ([3]; human, plasma, single oral doses 15-200 mg, fasting, healthy adult subjects, given as monophosphate salt, read-out: median Tmax) | findings in laboratory or vital signs parameters ([3]; in vivo) | serious AEs ([3]; in vivo) | steady state expected to be reached ([3]; once-daily oral dosing) | solubility ([4]; ACN:water (7:3 vol.), sample 82-2, read-out: Solubility (mg/mL) at 50° C.) | solubility ([4]; t-BuOH, sample 83-1, read-out: Solubility (mg/mL) at 50° C.) | solubility ([4]; t-BuOH:water (9:1 vol.), sample 83-2, read-out: Solubility (mg/mL) at 50° C.) | tolerability [5]
tosylate | deliquescing | – | – | – | – | – | – | – | – | – | – | – | – | – | –
C[C@](N)(c1ccc(F)cc1)c1cnc(N2CCN(c3ncnn4cc(-c5cnn(CCO)c5)cc34)CC2)nc1 [Compound (I), (S)-2-(4-(4-(4-(5-(1-amino-1-(4-fluorophenyl)ethyl)pyrimidin-2-yl)piperazin-1-yl)pyrrolo[1,2-f][1,2,4]triazin-6-yl)-1H-pyrazol-1-yl)ethanol] | – | limited | Only Grade 1 adverse events | dose-proportional increase | linear | 20 to 28 h | 753 to 973 L | 1.5 to 6 h | no clinically relevant findings | No serious AEs were reported | ≤ 7 days | 8.6 mg/mL (≈ 16.3 mM) | < 2.6 mg/mL | < 2.6 mg/mL | well-tolerated
